Values of other authors in US6645974B2, “Androgen receptor modulators and methods for use thereof” (Merck & Co., Inc., priority 2001, dated 2003).
Counter-ions that a name gives are not always drawn.

Key:
[1] = after 7 years of treatment
[2] = postmenopausal osteoporotic women, median of 22 months of treatment

Molecule	increase in spinal BMD [1]	reduction in nonvertebral fractures [2]	reduction in spine fractures [2]
NCCCC(O)(P(=O)(O)O)P(=O)(O)O [alendronate, 4-amino-1-hydroxybutylidene-1,1-bisphosphonic acid monosodium salt, trihydrate]	≤ 11%		
hPTH(1-34): human parathyroid hormone 1-34 fragment (SVSEIQLMHNLGKHLNSMERVEWLRKKLQDVHNF; Parathyroid hormone; UniProt P01270 32-65, looked up, fragment)		54%	≥ 65%
